This is an account of results in publication PMC9697446 (International Journal of Molecular Sciences, 2022).

The target of test [1] is T1, EeAChE PAS (Electrophorus electricus, UniProt O42275).
T1 construct: purchased Sigma-Aldrich type VI-S
Put plainly: biochemical. The format is binding. The settings on record: EeAChE 7 µM, PI 8 µM, means ± SEM (n = 3); for inhibition at 3 µM: compound 3 µM, read-out: PI Displacement, 3 µM; for inhibition at 20 µM: compound 20 µM, read-out: PI Displacement, 20 µM. As to the method:
PIand donepezil were purchased from Sigma-Aldrich. […] As the source of the enzyme, electric eel (Elecrophorus electricus) AChE (EeAChE, type VI-S, lyophilized powder, Sigma-Aldrich, Saint Louis, MO, USA) was used. The applicability of this enzyme was shown earlier
To determine the percentage of displacement of PI from the EeAChE PAS, EeAChE (with a final concentration of 7 μM) was incubated with the test compound at a concentration of 3 and 20 μM in 1 mM Tris-HCl buffer pH 8.0, 25 °C for 15 min. Next, PIsolution (with a final concentration of 8 μM) was added, the samples were incubated for 15 min, and the fluorescence spectrum (530 nm (exc.) and 600 nm (emiss.)) was taken. Donepezil and decamethonium were used as reference compounds. The blank contained PI of the same concentration in 1 mM Tris-HCl buffer pH 8.0. The measurements were carried out in triplicate on a FLUOStar Optima microplate reader).
The percentage of displacement of PIfrom the peripheral anionic site of AChE was calculated using the following formula:% Displacement = 100 − (IFAChE+Propidium+inhibitor/IFAChE+Propidium) × 100,(1) where IFAChE+Propidium is the fluorescence intensity of the propidium associated with AChE in the absence of the test compound (taken as 100%) and IFAChE+Propidium+inhibitor is the fluorescence intensity of the propidium associated with AChE in the presence of the test compound.

Test [2] deals with isolated rat liver mitochondria. Kind of test: Mitochondrial membrane potential and calcium-induced depolarization (safranine O). To be noted: depolarization after 10-min incubation with 30 µM compound, mean ± SD; for ΔΨm, CI (g/m): complex I substrates (glutamate, malate); for ΔΨm, CII (s/r): complex II substrate (succinate) in the presence of rotenone. The format is biochemical. As to the method:
The primary screening of new compounds to determine their effect on the mitochondrial membrane potential formed due to respiratory chain (RC) activity after additions of RC substrates was performed on isolated rat liver mitochondria. It can be used to estimate the probability of the potential toxicity of these compounds. Furthermore, the influence of the compounds on the calcium-dependent depolarization of isolated rat liver mitochondria in this assay made it possible to evaluate the effect on the mitochondrial permeability transition.
Rat liver mitochondria were isolated by conventional differential centrifugation from the livers of adult Wistar strain rats that fasted overnight, pH 7.6 [83, 84]. The mitochondrial protein concentration was determined using a biuret procedure with bovine serum albumin as the standard.
Safranine O (10 µM) was used as a membrane potential probe. Fluorescence intensity at 580 nm (excitation at 520 nm) was measured with a Wallac Victor 3 1420 Multilabel Counter (Perkin Elmer, Turku, Finland). The mitochondrial protein concentration was 0.2 mg/mL. The medium for measurements contained 75 mM sucrose, 225 mM mannitol, 10 mM K-HEPES (pH 7.4), 0.02 mM EGTA, and 1 mM KH2PO4. After a 5-min incubation, 5 mM glutamate/malate or 5 mM succinate in the presence of 0.5 µM rotenone were added to produce the mitochondrial potential. Then, the compounds (30 µM) or the same volume of the vehicle (DMSO) were injected into the mitochondrial suspension. After 15–20 min, 12.5 µM CaCl2 was added to each sample to induce the depolarization of mitochondria, and after 5 min, 0.5 µM CCCP was added for maximum depolarization of the mitochondria. The level of depolarization (ΔΨm) was calculated using the fluorescence value after 10-min incubation with 30 µM of compounds (or vehicle) normalized between the fluorescence measurements after substrate and CCCP addition, where fluorescence intensity at 580 nm was 100% after substrate addition and was 0% after CCCP addition.

Test [3] has as its system Fe3+-induced LP in rat brain homogenate. Kind of test: Fe3+-induced lipid peroxidation in rat brain homogenate. The format is biochemical. The settings on record: LP induced by 0.5 mM Fe3+ in rat brain homogenate; mean ± SD; read-out: Inhibition of LP IC50. The procedure:
The influence of MB and its conjugates with indole derivatives on Fe^3+-induced lipid peroxidation (LP) in rat brain homogenate was studied over a broad concentration range (from 10 nM to 30 µM).
On the day of the experiment, adult Wistar male rats that fasted overnight were euthanized in a CO2 chamber, followed by decapitation. The procedure was in compliance with the Guidelines for Animal Experiments at the Institute of Physiologically Active Compounds of the Russian Academy of Sciences. The brains were rapidly removed and homogenized in 0.12 M HEPES/0.15M NaCl, pH 7.4 buffer (HBS) ([…]) and used immediately for the assay.
The protein concentrations in rat brain homogenate (RBH) were determined by the biuret assay using bovine serum albumin as the standard.
The effect of the compounds on LP of the RBH was studied at […] in 0.25 mL of RBH (2 mg of protein·mL^−1) in the presence of the compounds or the vehicle (DMSO). Lipid peroxidation was induced by Fe^3+ (0.5 mM Fe(NH4)(SO4)2) as an oxidant.
The reaction mixture was incubated for 30 min at 37 °C, then quenched by adding 0.4 mL of quench medium containing 250 mM HCl and 15% (w/v) trichloroacetic acid. The samples were then centrifuged for 10 min at 10,000× g, and 75 µL of the supernatant was transferred to a 96-well plate. Next, 75 µL of 0.8% (w/v) 2-thiobarbituric acid (TBA) was added. The plate was then sealed, heated at 95 °C for 15 min, cooled to 4 °C, and the absorbance at 530–620 nm was measured using a Wallac Victor 3 1420 Multilabel Counter (Perkin Elmer, Turku, Finland).
All the experiments were performed as four independent runs with different brain homogenate preparations and three repeated probes in each run. The average results for each run were normalized between the positive control with the vehicle and Fe^3+ and negative control with only the vehicle. They were presented as the IC50 ± SD values for the antioxidant activities of the compounds which were calculated using GraphPad Prism 7.00 software (San Diego, CA, USA).

As usually defined, the IC50 is the concentration needed to halve the response being measured.

T1 sequence (O42275 24-633): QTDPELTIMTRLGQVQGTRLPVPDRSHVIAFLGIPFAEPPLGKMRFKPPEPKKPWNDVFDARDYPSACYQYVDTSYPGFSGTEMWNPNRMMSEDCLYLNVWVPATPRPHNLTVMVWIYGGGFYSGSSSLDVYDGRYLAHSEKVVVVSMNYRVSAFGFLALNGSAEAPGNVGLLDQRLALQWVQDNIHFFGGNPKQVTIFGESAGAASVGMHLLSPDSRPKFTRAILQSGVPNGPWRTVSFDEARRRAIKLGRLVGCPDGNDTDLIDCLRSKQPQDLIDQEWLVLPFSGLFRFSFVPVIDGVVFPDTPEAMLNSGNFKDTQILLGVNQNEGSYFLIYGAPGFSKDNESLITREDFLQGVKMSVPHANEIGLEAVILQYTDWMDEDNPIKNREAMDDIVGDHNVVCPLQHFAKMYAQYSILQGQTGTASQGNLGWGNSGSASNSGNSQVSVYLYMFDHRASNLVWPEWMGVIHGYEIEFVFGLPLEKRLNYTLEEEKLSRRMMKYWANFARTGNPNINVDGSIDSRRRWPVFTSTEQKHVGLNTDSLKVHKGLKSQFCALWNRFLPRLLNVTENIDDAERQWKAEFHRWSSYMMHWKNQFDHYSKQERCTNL

With `CN(C)c1ccc2c(c1)Sc1cc(N(C)C)ccc1N2C(=O)CCn1c2c(c3ccccc31)CCC2` [Compound 4a], in test [1], the inhibition at 3 µM was found to be 12 ± 0.5% and the inhibition at 20 µM is 20.9 ± 0.8%. In test [2], the “ΔΨm, CI (g/m)” value was determined as 8 ± 1% and the “ΔΨm, CII (s/r)” value came out at 58 ± 1%. In addition, in test [3], the IC50 stood at 1240 ± 720 nM.

Regarding `CN(C)c1ccc2c(c1)Sc1cc(N(C)C)ccc1N2C(=O)CCn1c2c(c3ccccc31)CCCC2` [Compound 4b], in test [1], the inhibition at 3 µM is 12.6 ± 0.7% and the inhibition at 20 µM is 27.9 ± 1.1%. In test [2], the “ΔΨm, CI (g/m)” value is on record as 20 ± 1% and the “ΔΨm, CII (s/r)” value stood at 42 ± 2%. Moreover, the IC50 in test [3] was determined as 1120 ± 630 nM.

Take `Cc1ccc2c(c1)c1c(n2CCC(=O)N2c3ccc(N(C)C)cc3Sc3cc(N(C)C)ccc32)CCCC1` [Compound 4c]: in test [1], the inhibition at 3 µM was determined as 14.9 ± 1.1% and the inhibition at 20 µM came to 31.8 ± 0.9%. Moreover, in test [2], the “ΔΨm, CI (g/m)” value stood at 29 ± 1% and the “ΔΨm, CII (s/r)” value was found to be 50 ± 3%. Further, the IC50 in test [3] was found to be 780 ± 350 nM.

Take `COc1ccc2c(c1)c1c(n2CCC(=O)N2c3ccc(N(C)C)cc3Sc3cc(N(C)C)ccc32)CCCC1` [Compound 4d]: in test [1], the inhibition at 3 µM was found to be 13.4 ± 0.9% and the inhibition at 20 µM was found to be 28 ± 1.5%. Also, in test [2], the “ΔΨm, CI (g/m)” value worked out at 30 ± 4% and the “ΔΨm, CII (s/r)” value was determined as 53 ± 1%. The IC50 in test [3] turned out to be 1120 ± 620 nM.

For `COc1ccc2c(c1)c1c(n2CCC(=O)N2c3ccc(N(C)C)cc3Sc3cc(N(C)C)ccc32)CCC(C)C1` (centres unmarked) [Compound 4e], in test [1], the inhibition at 3 µM was 14.8 ± 0.7% and the inhibition at 20 µM worked out at 23 ± 1.3%. In test [2], the “ΔΨm, CI (g/m)” value turned out to be 33 ± 1% and the “ΔΨm, CII (s/r)” value is reported as 50 ± 1%. Besides, the IC50 in test [3] amounted to 500 ± 360 nM.

Turning to `CN(C)c1ccc2c(c1)Sc1cc(N(C)C)ccc1N2C(=O)CCn1c2c(c3cc(F)ccc31)CCCC2` [Compound 4f], in test [1], the inhibition at 3 µM was 14.4 ± 0.8% and the inhibition at 20 µM is 31.9 ± 1.4%. Further, in test [2], the “ΔΨm, CI (g/m)” value came out at 27 ± 1% and the “ΔΨm, CII (s/r)” value stood at 47 ± 1%. Moreover, the IC50 in test [3] amounted to 600 ± 320 nM.

Turning to `CN(C)c1ccc2c(c1)Sc1cc(N(C)C)ccc1N2C(=O)CCn1c2c(c3ccccc31)CCCCC2` [Compound 4j], in test [1], the inhibition at 3 µM is 10.3 ± 0.9% and the inhibition at 20 µM is 23.8 ± 1.1%. In addition, in test [2], the “ΔΨm, CI (g/m)” value was 21 ± 9% and the “ΔΨm, CII (s/r)” value was 66 ± 1%. For the same compound, the IC50 in test [3] came out at 620 ± 370 nM.

Consider `Cc1ccc2c(c1)c1c(n2CCC(=O)N2c3ccc(N(C)C)cc3Sc3cc(N(C)C)ccc32)CCCCC1` [Compound 4k], for which, in test [1], the inhibition at 3 µM worked out at 12.1 ± 0.8% and the inhibition at 20 µM turned out to be 15.8 ± 0.7%. For the same compound, in test [2], the “ΔΨm, CI (g/m)” value is given as 6 ± 3% and the “ΔΨm, CII (s/r)” value is on record as 62 ± 1%. The IC50 in test [3] amounted to 820 ± 680 nM.

Turning to `CN(C)c1ccc2c(c1)Sc1cc(N(C)C)ccc1N2C(=O)CCn1c2c(c3ccccc31)CCCCCC2` [Compound 4m], in test [1], the inhibition at 3 µM is 17.3 ± 1.2% and the inhibition at 20 µM was 37.4 ± 0.8%. Moreover, in test [2], the “ΔΨm, CI (g/m)” value is on record as 23 ± 9% and the “ΔΨm, CII (s/r)” value came out at 57 ± 6%. Moreover, in test [3], the IC50 worked out at 1520 ± 790 nM.

On to `Cc1ccc2c(c1)c1c(n2CCC(=O)N2c3ccc(N(C)C)cc3Sc3cc(N(C)C)ccc32)CCCCCC1` [Compound 4n], for which, in test [1], the inhibition at 3 µM is 16.7 ± 1.2% and the inhibition at 20 µM came out at 28.3 ± 1.2%. Moreover, in test [2], the “ΔΨm, CI (g/m)” value is listed as 23 ± 6% and the “ΔΨm, CII (s/r)” value is 65 ± 1%. In test [3], the IC50 is 930 ± 680 nM.
